Laboratory results taken from patent US12637440B2, “Amide derivative useful as diacylglycerol acyltransferase 2 inhibitor, and use thereof” (LG CHEM, LTD., priority 2019, dated 2026).

Biological target: T1, Recombinant human DGAT2 protein (Homo sapiens, UniProt Q96PD7)
T1 construct: FLAG (DYKDDDDK); (N); made in house; host or cells: Sf-21 insect cells (BacPAK baculovirus system); used as a membrane preparation
T1 sequence (Q96PD7 1-388): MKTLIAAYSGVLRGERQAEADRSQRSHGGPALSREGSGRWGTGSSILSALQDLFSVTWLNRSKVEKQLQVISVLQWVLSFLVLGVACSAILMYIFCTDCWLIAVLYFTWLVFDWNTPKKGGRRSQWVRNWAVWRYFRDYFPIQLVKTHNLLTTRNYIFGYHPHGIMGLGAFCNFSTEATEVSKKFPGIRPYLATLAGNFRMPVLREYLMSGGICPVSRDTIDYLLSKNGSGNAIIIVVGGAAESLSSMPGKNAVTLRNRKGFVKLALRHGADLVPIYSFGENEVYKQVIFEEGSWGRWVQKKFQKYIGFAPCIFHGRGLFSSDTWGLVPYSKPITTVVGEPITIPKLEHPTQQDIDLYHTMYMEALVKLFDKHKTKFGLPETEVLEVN
Experiment: Measurement of inhibitory effect against DGAT2 enzyme activity (SPA, Phospholipid FlashPlate, [14C]-TG production)
Format: biochemical
Settings: concentration inhibiting [14C]-labeled triacyl glycerol (TG) production by 50%; 2 μg DGAT2-membrane protein from Sf-21 cells, 37° C.
Outline: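 Membranes from Sf-21 cells expressing human DGAT2 (2 μg) preincubated 20 min at 37 °C with compound (3 nM–10 μM, 1% DMSO) in HEPES/MgCl2/BSA with 50 μM 1,2-dioleoyl glycerol, then 1 μM [14C]oleoyl-CoA for 15 min. [14C]-TG measured by SPA FlashPlate; inhibition as % of untreated control.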

IC50	Compound
390 nM	CCOc1ccccc1O[C@@H]1CCCN(c2cncc(NC(=O)CCc3cc(F)c(C(=O)O)c(F)c3)n2)C1 [Example 53, (R)-4-(3-((6-(3-(2-ethoxyphenoxy)piperidin-1-yl)pyrazin-2-yl)amino)-3-oxopropyl)-2,6-difluorobenzoic acid]
1800 nM	CCOc1ccccc1O[C@@H]1CCCN(c2cc(C(F)(F)F)nc(NC(=O)Cc3ccc(CC(C)(C)C(=O)O)cc3)n2)C1 [Example 72]
1800 nM	CCOc1ccccc1O[C@@H]1CCCN(c2cncc(NC(=O)CC(C)(C)CC(=O)O)n2)C1 [Example 25, (R)-5-((6-(3-(2-ethoxyphenoxy)piperidin-1-yl)pyrazin-2-yl)amino)-3,3-dimethyl-5-oxopentanoic acid]
170 nM	CCOc1ccccc1O[C@@H]1CCCN(c2cncc(NC(=O)CC34CCC(C(=O)O)(CC3)CC4)n2)C1 [Example 118, (R)-4-(2-((6-(3-(2-ethoxyphenoxy)piperidin-1-yl)pyrazin-2-yl)amino)-2-oxoethyl)bicyclo[2.2.2]octane-1-carboxylic acid]
83 nM	CCOc1ccccc1O[C@@H]1CCCN(c2cncc(NC(=O)CCc3cccc(CC(C)(C)C(=O)O)c3)n2)C1 [Example 127, (R)-3-(3-(3-((6-(3-(2-ethoxyphenoxy)piperidin-1-yl)pyrazin-2-yl)amino)-3-oxopropyl)phenyl)-2,2-dimethylpropanoic acid]

The remaining lines, values behind:

Compound	IC50
CCOc1ccccc1O[C@@H]1CCCN(c2nccc(NC(=O)C(C)(C)c3ccc(CC(C)(C)C(=O)O)cc3)n2)C1 [Example 124, (R)-3-(4-(1-((2-(3-(2-ethoxyphenoxy)piperidin-1-yl)pyrimidin-4-yl)amino)-2-methyl-1-oxopropan-2-yl)phenyl)-2,2-dimethylpropanoic acid]	330 nM
CCOc1ccccc1O[C@@H]1CCCN(c2cncc(NC(=O)/C=C/C34CCC(C(=O)O)(CC3)CC4)n2)C1 [Example 121, (R,E)-4-(3-((6-(3-(2-ethoxyphenoxy)piperidin-1-yl)pyrazin-2-yl)amino)-3-oxoprop-1-en-1-yl)bicyclo[2.2.2]octane-1-carboxylic acid]	98 nM
CCOc1ccccc1O[C@@H]1CCCN(c2cccc(NC(=O)CCc3ccc(C(C)(C)C(=O)O)cc3)n2)C1 [Example 70, (R)-2-(4-(3-((6-(3-(2-ethoxyphenoxy)piperidin-1-yl)pyridin-2-yl)amino)-3-oxopropyl)phenyl)-2-methylpropanoic acid]	350 nM
CCOc1ccccc1O[C@@H]1CCCN(c2cncc(NC(=O)CCC(C)(C)C(=O)O)n2)C1 [Example 24, (R)-5-((6-(3-(2-ethoxyphenoxy)piperidin-1-yl)pyrazin-2-yl)amino)-2,2-dimethyl-5-oxopentanoic acid]	300 nM
CCOc1ccccc1O[C@@H]1CCCN(c2cncc(NC(=O)CCc3ccc(CC(=O)O)cc3)n2)C1 [Example 49, (R)-2-(4-(3-((6-(3-(2-ethoxyphenoxy)piperidin-1-yl)pyrazin-2-yl)amino)-3-oxopropyl)phenyl)acetic acid]	100 nM
CCOc1cccnc1O[C@@H]1CCCN(c2cncc(NC(=O)CCC34CCC(C(=O)O)(CC3)CC4)n2)C1 [Example 120, (R)-4-(3-((6-(3-((3-ethoxypyridin-2-yl)oxy)piperidin-1-yl)pyrazin-2-yl)amino)-3-oxopropyl)bicyclo[2.2.2]octane-1-carboxylic acid]	250 nM
CCOc1ccccc1O[C@@H]1CCCN(c2cncc(NC(=O)c3ccc(OC(C)(C)C(=O)O)cc3)n2)C1 [Example 14, (R)-2-(4-((6-(3-(2-ethoxyphenoxy)piperidin-1-yl)pyrazin-2-yl)carbamoyl)phenoxy)-2-methylpropanoic acid]	12000 nM
CCOc1ccccc1O[C@@H]1CCCN(c2cncc(NC(=O)[C@@H]3CCCN(c4cccc(CC(C)(C)C(=O)O)c4)C3)n2)C1 [Example 85, 3-(3-((R)-3-((6-((R)-3-(2-ethoxyphenoxy)piperidin-1-yl)pyrazin-2-yl)carbamoyl)piperidin-1-yl)phenyl)-2,2-dimethylpropanoic acid]	42 nM
